Measured values published in PubChem BioAssay (NCI).
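Abbreviation: GI50, concentration required for 50% inhibition of growth. TGI is the concentration that stops growth completely.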

How the values were obtained:
Assay in all cases: NCI tumour cell line growth inhibition, 384-well format
MDA-MB-435 melanoma = system: MDA-MB-435 melanoma
HT29 colon = system: HT29 colon
UACC-257 melanoma = system: UACC-257 melanoma
SNB-19 CNS = system: SNB-19 CNS
NCI-H23 lung = system: NCI-H23 lung
HCT-116 colon = system: HCT-116 colon
BT-549 breast = system: BT-549 breast
SF-539 CNS = system: SF-539 CNS
HOP-62 NSCLC = system: HOP-62 NSCLC
OVCAR-3 ovarian = system: OVCAR-3 ovarian
NCI-H226 lung = system: NCI-H226 lung
SNB-75 CNS = system: SNB-75 CNS
CCRF-CEM leukemia = system: CCRF-CEM leukemia
SW-620 colon = system: SW-620 colon
HL-60(TB) leukemia = system: HL-60(TB) leukemia
ACHN renal = system: ACHN renal
NCI/ADR-RES ovarian = system: NCI/ADR-RES ovarian
786-0 renal = system: 786-0 renal
A498 renal = system: A498 renal
OVCAR-4 ovarian = system: OVCAR-4 ovarian
SK-MEL-5 melanoma = system: SK-MEL-5 melanoma
MDA-MB-468 breast = system: MDA-MB-468 breast
HOP-92 NSCLC = system: HOP-92 NSCLC
NCI-H460 NSCLC = system: NCI-H460 NSCLC
SF-268 CNS = system: SF-268 CNS
EKVX NSCLC = system: EKVX NSCLC
DU-145 prostate = system: DU-145 prostate
SK-OV-3 ovarian = system: SK-OV-3 ovarian
UACC-62 melanoma = system: UACC-62 melanoma
SN12C renal = system: SN12C renal
HCT-15 colon = system: HCT-15 colon
SK-MEL-28 melanoma = system: SK-MEL-28 melanoma
PC-3 prostate = system: PC-3 prostate
K-562 leukemia = system: K-562 leukemia
MOLT-4 leukemia = system: MOLT-4 leukemia
TK-10 renal = system: TK-10 renal
LOX IMVI melanoma = system: LOX IMVI melanoma
CAKI-1 renal = system: CAKI-1 renal
HS 578T breast = system: HS 578T breast
COLO 205 colon = system: COLO 205 colon
HCC-2998 colon = system: HCC-2998 colon
NCI-H522 lung = system: NCI-H522 lung
NCI-H322M lung = system: NCI-H322M lung
M14 melanoma = system: M14 melanoma
SF-295 CNS = system: SF-295 CNS
RXF 393 renal = system: RXF 393 renal
MCF7 breast = system: MCF7 breast
RPMI-8226 leukemia = system: RPMI-8226 leukemia
SK-MEL-2 melanoma = system: SK-MEL-2 melanoma
KM12 colon = system: KM12 colon
MALME-3M melanoma = system: MALME-3M melanoma
OVCAR-8 ovarian = system: OVCAR-8 ovarian
A549 NSCLC = system: A549 NSCLC
U251 glioblastoma = system: U251 glioblastoma
IGROV1 ovarian = system: IGROV1 ovarian

CCOC(=O)CCC(NC(=O)C(Cc1ccc(N(CCCl)CCCl)cc1)NC=O)C(=O)OCC (stereo not given)
GI50 (MDA-MB-435 melanoma): 3.19 µM | TGI (MDA-MB-435 melanoma): 8.84 µM | GI50 (HT29 colon): 3.71 µM | TGI (HT29 colon): 16.6 µM | GI50 (UACC-257 melanoma): 1.97 µM | TGI (UACC-257 melanoma): 4.65 µM | GI50 (SNB-19 CNS): 3.81 µM | TGI (SNB-19 CNS): 26.1 µM | GI50 (NCI-H23 lung): 1.12 µM | TGI (NCI-H23 lung): 2.99 µM | GI50 (HCT-116 colon): 4.13 µM | TGI (HCT-116 colon): 24.3 µM | GI50 (BT-549 breast): 12.1 µM | TGI (BT-549 breast): 27.5 µM | GI50 (SF-539 CNS): 0.837 µM | TGI (SF-539 CNS): 2.16 µM | GI50 (HOP-62 NSCLC): 1.72 µM | TGI (HOP-62 NSCLC): 4.13 µM | GI50 (OVCAR-3 ovarian): 1.14 µM | TGI (OVCAR-3 ovarian): 2.71 µM | GI50 (NCI-H226 lung): 1.71 µM | TGI (NCI-H226 lung): 10.9 µM | GI50 (SNB-75 CNS): 2.35 µM | TGI (SNB-75 CNS): 5.59 µM | GI50 (CCRF-CEM leukemia): 0.131 µM | TGI (CCRF-CEM leukemia): 0.281 µM | GI50 (SW-620 colon): 2.86 µM | TGI (SW-620 colon): 20.6 µM | GI50 (HL-60(TB) leukemia): 0.0335 µM | TGI (HL-60(TB) leukemia): 0.138 µM | GI50 (ACHN renal): 0.446 µM | TGI (ACHN renal): 1.88 µM | GI50 (NCI/ADR-RES ovarian): 8.38 µM | TGI (NCI/ADR-RES ovarian): 21.2 µM | GI50 ([…]-0 renal): 1.34 µM | TGI (786-0 renal): 2.91 µM | GI50 (A498 renal): 5.47 µM | TGI (A498 renal): 26.6 µM | GI50 (OVCAR-4 ovarian): 2.6 µM | TGI (OVCAR-4 ovarian): 5.83 µM | GI50 (SK-MEL-5 melanoma): 1.22 µM | TGI (SK-MEL-5 melanoma): 2.59 µM | GI50 (MDA-MB-468 breast): 0.339 µM | TGI (MDA-MB-468 breast): 0.763 µM | GI50 (HOP-92 NSCLC): 1.02 µM | TGI (HOP-92 NSCLC): 3.49 µM | GI50 (NCI-H460 NSCLC): 0.566 µM | TGI (NCI-H460 NSCLC): 2.91 µM | GI50 (SF-268 CNS): 0.737 µM | TGI (SF-268 CNS): 2.28 µM | GI50 (EKVX NSCLC): 18.9 µM | TGI (EKVX NSCLC): 41.6 µM | GI50 (DU-145 prostate): 2.42 µM | TGI (DU-145 prostate): 5.42 µM | GI50 (SK-OV-3 ovarian): 3.27 µM | TGI (SK-OV-3 ovarian): 12.4 µM | GI50 (UACC-62 melanoma): 0.758 µM | TGI (UACC-62 melanoma): 2.27 µM | GI50 (SN12C renal): 0.604 µM | TGI (SN12C renal): 2.61 µM | GI50 (HCT-15 colon): 4.54 µM | TGI (HCT-15 colon): 16.8 µM | GI50 (SK-MEL-28 melanoma): 1.48 µM | TGI (SK-MEL-28 melanoma): 3.34 µM | GI50 (PC-3 prostate): 5.25 µM | TGI (PC-3 prostate): 19.1 µM | GI50 (K-562 leukemia): 13.1 µM | TGI (K-562 leukemia): 27.8 µM | GI50 (MOLT-4 leukemia): 0.0322 µM | TGI (MOLT-4 leukemia): 0.113 µM | GI50 (TK-10 renal): 11.4 µM | TGI (TK-10 renal): 29.2 µM | GI50 (LOX IMVI melanoma): 2.69 µM | TGI (LOX IMVI melanoma): 13.2 µM | GI50 (CAKI-1 renal): 0.463 µM | TGI (CAKI-1 renal): 2.14 µM | GI50 (HS 578T breast): 2.58 µM | TGI (HS 578T breast): 14.3 µM | GI50 (COLO 205 colon): 0.602 µM | TGI (COLO 205 colon): 2.38 µM | GI50 (HCC-2998 colon): 0.712 µM | TGI (HCC-2998 colon): 13.9 µM | GI50 (NCI-H522 lung): 0.729 µM | TGI (NCI-H522 lung): 2.11 µM | GI50 (NCI-H322M lung): 13.8 µM | TGI (NCI-H322M lung): 30.1 µM | GI50 (M14 melanoma): 0.449 µM | TGI (M14 melanoma): 1.4 µM | GI50 (SF-295 CNS): 2.12 µM | TGI (SF-295 CNS): 4.49 µM | GI50 (RXF 393 renal): 1.76 µM | TGI (RXF 393 renal): 3.19 µM | GI50 (MCF7 breast): 4.06 µM | TGI (MCF7 breast): 25.9 µM | GI50 (RPMI-8226 leukemia): 0.355 µM | TGI (RPMI-8226 leukemia): 0.899 µM | GI50 (SK-MEL-2 melanoma): 0.64 µM | TGI (SK-MEL-2 melanoma): 1.85 µM | GI50 (KM12 colon): 15 µM | TGI (KM12 colon): 36.3 µM | GI50 (MALME-3M melanoma): 1.03 µM | TGI (MALME-3M melanoma): 2.22 µM | GI50 (OVCAR-8 ovarian): 3.24 µM | TGI (OVCAR-8 ovarian): 17 µM | GI50 (A549 NSCLC): 5.77 µM | TGI (A549 NSCLC): 27.5 µM | GI50 (U251 glioblastoma): 1.82 µM | TGI (U251 glioblastoma): 6.04 µM | GI50 (IGROV1 ovarian): 1.37 µM | TGI (IGROV1 ovarian): 5.37 µM
